# From ChEMBL document CHEMBL3414526, “Selective, nontoxic CB(2) cannabinoid o-quinone with in vivo activity against triple-negative breast cancer” (J Med Chem, 2015)
# The source made the active and inactive calls. The calls are words filed in the database; no cut-off is given here.
# Tests used:
# Cannabinoid receptor 1 = Cannabinoid receptor 1 (Homo sapiens, UniProt P21554); experiment: Displacement of [3H]CP55940 from human CB1 receptor transfected in HEK293 cells after 90 mins by liquid scintillation spectrophotometry; type: cell-based
# Sequence of Cannabinoid receptor 1 (P21554 whole entry): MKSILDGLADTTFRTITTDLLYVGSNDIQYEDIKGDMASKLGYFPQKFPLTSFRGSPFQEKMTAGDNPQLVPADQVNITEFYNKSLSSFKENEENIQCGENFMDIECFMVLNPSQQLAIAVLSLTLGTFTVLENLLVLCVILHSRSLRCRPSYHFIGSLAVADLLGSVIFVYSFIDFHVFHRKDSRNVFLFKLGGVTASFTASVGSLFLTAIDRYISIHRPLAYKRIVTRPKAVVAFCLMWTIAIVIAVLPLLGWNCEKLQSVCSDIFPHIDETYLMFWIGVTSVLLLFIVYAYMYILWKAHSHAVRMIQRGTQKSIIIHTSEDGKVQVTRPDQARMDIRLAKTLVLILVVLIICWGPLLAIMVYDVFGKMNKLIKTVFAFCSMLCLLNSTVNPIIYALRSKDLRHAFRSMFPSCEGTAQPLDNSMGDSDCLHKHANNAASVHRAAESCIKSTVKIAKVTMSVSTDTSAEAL
# Cannabinoid receptor 2 = Cannabinoid receptor 2 (Homo sapiens, UniProt P34972); experiment: Displacement of [3H]CP55940 from human CB2 receptor transfected in HEK293 cells after 90 mins by liquid scintillation spectrophotometry; type: cell-based
# Sequence of Cannabinoid receptor 2 (P34972 whole entry): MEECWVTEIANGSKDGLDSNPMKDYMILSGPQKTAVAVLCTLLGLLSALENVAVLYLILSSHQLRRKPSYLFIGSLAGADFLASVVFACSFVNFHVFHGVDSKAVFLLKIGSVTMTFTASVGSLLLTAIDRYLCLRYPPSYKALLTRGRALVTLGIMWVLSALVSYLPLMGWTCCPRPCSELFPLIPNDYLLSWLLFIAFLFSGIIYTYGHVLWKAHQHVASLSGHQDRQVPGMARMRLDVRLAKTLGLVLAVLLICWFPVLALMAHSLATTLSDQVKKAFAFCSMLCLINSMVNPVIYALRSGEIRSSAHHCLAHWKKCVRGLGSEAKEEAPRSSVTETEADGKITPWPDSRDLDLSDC
# MDA-MB-231 [1] = experiment: Antiproliferative activity against human MDA-MB-231 cells after 48 hrs by MTT assay; type: functional, cell-based; conditions: MDA-MB-231, 48 h
# [2] = Antiproliferative activity against human SUM149 cells after 48 hrs by MTT assay; type: functional, cell-based; conditions: SUM149PT
# [3] = Antiproliferative activity against human SUM159 cells after 48 hrs by MTT assay; type: functional, cell-based; conditions: SUM-159-PT
# MDA-MB-468 = experiment: Antiproliferative activity against human MDA-MB-468 cells after 48 hrs by MTT assay; type: functional, cell-based; conditions: MDA-MB-468, 48 h
# HMEC = experiment: Antiproliferative activity against HMEC at 2 to 30 uM after 48 hrs by MTT assay; type: cell-based; conditions: human
# MDA-MB-231 [4] = experiment: Antiproliferative activity against human MDA-MB-231 cells at IC50 after 48 hrs by MTT assay in presence of SR141716; type: functional, cell-based
# MDA-MB-231 [5] = experiment: Antiproliferative activity against human MDA-MB-231 cells at IC50 after 48 hrs by MTT assay in presence of SR144528; type: functional, cell-based
# MDA-MB-231 [6] = experiment: Antiproliferative activity against human MDA-MB-231 cells at IC50 after 48 hrs by MTT assay in presence of CDI16020046; type: functional, cell-based
# MDA-MB-231 [7] = experiment: Antiproliferative activity against human MDA-MB-231 cells at IC50 after 48 hrs by MTT assay in presence of alpha-tocopherol; type: functional, cell-based
# MDA-MB-231 [8] = experiment: Induction of apoptosis in human MDA-MB-231 cells assessed as increase in active caspase-3 level at IC50 after 48 hrs by Western blotting analysis; type: functional, cell-based
# MDA-MB-231 [9] = experiment: Antitumor activity against human MDA-MB-231 cells xenografted in nude mouse assessed as reduction in tumor growth at 2 mg/kg, ip administered 3 times a week for 4 weeks relative to control; type: functional, organism-based; set-up: dose 2 mg/kg
# MDA-MB-231 [10] = experiment: Antitumor activity against human MDA-MB-231 cells xenografted in nude mouse assessed as reduction in tumor volume at 2 mg/kg, ip administered 3 times a week for 4 weeks relative to control; type: functional, organism-based; set-up: dose 2 mg/kg
# MDA-MB-231 [11] = experiment: Antitumor activity against human MDA-MB-231 cells xenografted in nude mouse assessed as reduction in tumor weight at 2 mg/kg, ip administered 3 times a week for 4 weeks relative to control; type: functional, organism-based; set-up: dose 2 mg/kg
# Mus musculus [12] = experiment: Toxicity in nude mouse xenografted with human MDA-MB-231 cells assessed as toxicity in liver at 2 mg/kg, ip administered 3 times a week for 4 weeks; type: organism-based; set-up: dose 2 mg/kg, route intraperitoneal; conditions: in vivo, 672 h
# Mus musculus [13] = experiment: Toxicity in nude mouse xenografted with human MDA-MB-231 cells assessed as toxicity in spleen at 2 mg/kg, ip administered 3 times a week for 4 weeks; type: organism-based; set-up: dose 2 mg/kg, route intraperitoneal; conditions: in vivo, 672 h
# Mus musculus [14] = experiment: Toxicity in nude mouse xenografted with human MDA-MB-231 cells assessed as toxicity in lungs at 2 mg/kg, ip administered 3 times a week for 4 weeks; type: organism-based; set-up: dose 2 mg/kg, route intraperitoneal; conditions: in vivo, 672 h
# Mus musculus [15] = experiment: Toxicity in nude mouse xenografted with human MDA-MB-231 cells assessed as toxicity in heart at 2 mg/kg, ip administered 3 times a week for 4 weeks; type: organism-based; set-up: dose 2 mg/kg, route intraperitoneal; conditions: in vivo, 672 h
# MDA-MB-231 [16] = experiment: Antiproliferative activity against human MDA-MB-231 cells after 72 hrs by MTT assay; type: functional, cell-based; conditions: MDA-MB-231, 72 h
structure (smiles),measurement,setting,value
CCCCCCC(C)(C)C1=CC2=C(C(=O)C1=O)c1c(cnn1CC)C(C)(C)O2,Ki,Cannabinoid receptor 1,> 40 µM
same,Ki,Cannabinoid receptor 2,0.529 µM
same,IC50,MDA-MB-231 [1],2.8 µM
same,IC50,[2],4.6 µM
same,IC50,[3],4.1 µM
same,IC50,MDA-MB-468,17.3 µM
same,Activity,HMEC,Non-toxic
same,Activity,MDA-MB-231 [4],Active
same,Activity,MDA-MB-231 [5],inactive
same,Activity,MDA-MB-231 [6],Active
same,Activity,MDA-MB-231 [7],inactive
same,Activity,MDA-MB-231 [8],Active
same,Activity,MDA-MB-231 [9],Active
same,Activity,MDA-MB-231 [10],Active
same,Activity,MDA-MB-231 [11],Active
same,Activity,Mus musculus [12],Non-toxic
same,Activity,Mus musculus [13],Non-toxic
same,Activity,Mus musculus [14],Non-toxic
same,Activity,Mus musculus [15],Non-toxic
CCCCCCC(C)(C)C1=CC2=C(C(=O)C1=O)c1nn(C)cc1C(C)(C)O2,Ki,Cannabinoid receptor 1,> 40 µM
same,Ki,Cannabinoid receptor 2,0.597 µM
same,IC50,MDA-MB-231 [1],5 µM
CCCCCCC(C)(C)C1=CC2=C(C(=O)C1=O)c1[nH]ncc1C(C)(C)O2,Ki,Cannabinoid receptor 1,> 40 µM
same,Ki,Cannabinoid receptor 2,0.398 µM
same,IC50,MDA-MB-231 [1],8.5 µM
CCCCCCC(C)(C)C1=CC(=O)C2=C(OC(C)(C)c3cn(CC)nc32)C1=O,IC50,MDA-MB-231 [1],2.5 µM
CCCCCc1cc(O)c2c(c1)OC(C)(C)[C@@H]1CCC(C)=C[C@@H]21 [DRONABINOL],IC50,MDA-MB-231 [16],5 µM
CCCCCCC(C)(C)C1=CC(=O)C2=C(OC(C)(C)c3c[nH]nc32)C1=O,IC50,MDA-MB-231 [1],8.2 µM
CCCCCCC(C)(C)C1=CC(=O)C2=C(OC(C)(C)c3cn(C)nc32)C1=O,IC50,MDA-MB-231 [1],5.8 µM
